# pIC50: −log10 of the molar value.
# Target: human ALK5 (Homo sapiens (Human), UniProt P36897)
# Experiment: ADP-GLO Kinases assay, inhibition of ALK5 kinase activity
# Format: biochemical
# Details: Table 12; compounds classified in term of potency; ATP at Km, 25° C.; read-out: ALK5 IC50
# Experimental: The enzymatic activity of compounds of the present invention was monitored measuring the formation of ADP using the ADP-GLO Kinases assay. Following the incubation of the purified enzyme, a substrate and ATP, the produced ADP was converted into ATP, which in turn was converted into light by Ultra-Glo Luciferase. The luminescent signal positively correlated with ADP amount and kinase activity. Briefly, the kinase reaction was performed by incubating 2.6 nM of the purified, commercially available human ALK5 (recombinant TGF 31 N-term GST-tagged, 80-end), a final concentration of TGFβ1 peptide 94.5 μM (Promega, T36-58) and ultra-pure ATP (Promega V915B). The ATP concentration was set at the Km value (concentration of substrate which permits the enzyme to achieve half maximal velocity (Vmax)) of ALK5 (5 μM). All reactions/incubations were performed at 25° C. Compound and ALK5 kinase were mixed and incubated for 15 mins. Reactions were initiated by addition of ATP at a final concentration in the assay of […]. After an incubation of 150 min, the reaction was stopped, and ADP production detected with ADP-Glo kit according to manufacturer's indications. The assay was performed in 384-well format and was validated using a selection of reference compounds that was tested in 11 point concentration-response curve.
# Compounds of the examples C1 and C2 were tested in the same in vitro assay described above.
# Chain of human ALK5 (P36897 80-503 limits assumed): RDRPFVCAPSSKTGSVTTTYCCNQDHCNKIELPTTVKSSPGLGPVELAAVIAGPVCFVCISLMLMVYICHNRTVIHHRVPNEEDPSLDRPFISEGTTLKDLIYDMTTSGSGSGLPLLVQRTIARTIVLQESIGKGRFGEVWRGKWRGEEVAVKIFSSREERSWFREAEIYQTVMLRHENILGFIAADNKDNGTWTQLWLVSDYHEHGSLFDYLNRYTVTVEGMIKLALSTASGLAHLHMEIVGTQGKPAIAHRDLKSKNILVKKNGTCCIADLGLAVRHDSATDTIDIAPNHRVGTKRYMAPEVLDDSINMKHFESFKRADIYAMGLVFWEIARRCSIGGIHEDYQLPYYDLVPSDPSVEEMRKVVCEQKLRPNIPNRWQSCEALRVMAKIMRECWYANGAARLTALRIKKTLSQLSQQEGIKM
row,Compound,pIC50
1,"CN1CCN(CCC(=O)Nc2cncc(-c3cc(-c4cc(Cl)ccc4F)nc4c3OCCN4)c2)CC1 [Example 38, N-{5-[6-(5-chloro-2-fluorophenyl)-2H,3H,4H-pyrido[3,2-b][1,4]oxazin-8-yl]pyridin-3-yl}-3-(4-methylpiperazin-1-yl)propanamide]",8.30 to 9.00
2,"COC(=O)c1cncc(-c2cc(-c3cccc(C)n3)nc3c2OCCN3)c1 [Example 39, Methyl 5-[6-(6-methylpyridin-2-yl)-2H,3H,4H-pyrido[3,2-b][1,4]oxazin-8-yl]pyridine-3-carboxylate]",8.00 to 8.30
3,"O=C(OC1CC1)c1cncc(-c2cc(-c3cc(Cl)ccc3F)nc3c2OCCN3)c1 [Example 40, Cyclopropyl 5-[6-(5-chloro-2-fluorophenyl)-2H,3H,4H-pyrido[3,2-b][1,4]oxazin-8-yl]pyridine-3-carboxylate]",8.30 to 9.00
4,"CN1CCC(COc2cncc(-c3cc(-c4cc(Cl)ccc4F)nc4c3OCCN4)c2)CC1 [Example 42, 3-[6-(5-chloro-2-fluorophenyl)-2H,3H,4H-pyrido[3,2-b][1,4]oxazin-8-yl]-5-[(1-methylpiperidin-4-yl)methoxy]pyridine]",8.30 to 9.00
5,"O=C(CCN(CCO)CCO)Nc1cncc(-c2cc(-c3cc(Cl)ccc3F)nc3c2OCCN3)c1 [Example 43, 3-[bis(2-hydroxyethyl)amino]-N-{5-[6-(5-chloro-2-fluorophenyl)-2H,3H,4H-pyrido[3,2-b][1,4]oxazin-8-yl]pyridin-3-yl}propanamide]",8.30 to 9.00
6,"CN(CCC(=O)Nc1cncc(-c2cc(-c3cc(Cl)ccc3F)nc3c2OCCN3)c1)C1COC1 [Example 45, N-{5-[6-(5-chloro-2-fluorophenyl)-2H,3H,4H-pyrido[3,2-b][1,4]oxazin-8-yl]pyridin-3-yl}-3-[methyl(oxetan-3-yl)amino]propanamide]",8.30 to 9.00
7,"CN1CCN(CCC(=O)Nc2cncc(-c3cc(-c4cc(Cl)ccc4F)nc4c3OCCN4)c2)CC1=O [Example 46, N-{5-[6-(5-chloro-2-fluorophenyl)-2H,3H,4H-pyrido[3,2-b][1,4]oxazin-8-yl]pyridin-3-yl}-3-(4-methyl-3-oxopiperazin-1-yl)propanamide]",8.00 to 8.30
8,"CN1CCN(CCC(=O)Nc2cncc(-c3cc(-c4cc(Cl)ccc4F)nc4c3OCCN4)c2)C(=O)C1 [Example 47, N-{5-[6-(5-chloro-2-fluorophenyl)-2H,3H,4H-pyrido[3,2-b][1,4]oxazin-8-yl]pyridin-3-yl}-3-(4-methyl-2-oxopiperazin-1-yl)propanamide]",8.00 to 8.30
9,"COC(=O)CN(C)CCC(=O)Nc1cncc(-c2cc(-c3cc(Cl)ccc3F)nc3c2OCCN3)c1 [Example 48, Methyl 2-{[2-({5-[6-(5-chloro-2-fluorophenyl)-2H,3H,4H-pyrido[3,2-b][1,4]oxazin-8-yl]pyridin-3-yl}carbamoyl)ethyl](methyl)amino}acetate]",8.00 to 8.30

# Same assay, conditions: Table 13; comparative examples, same in vitro assay; read-out: ALK5 IC50
row,Compound,pIC50
1,"COc1ccc(-c2cc(-c3cc(Cl)ccc3F)nc3c2OCCN3)cc1 [Example C1, 6-(5-chloro-2-fluorophenyl)-8-(4-methoxyphenyl)-2H,3H,4H-pyrido[3,2-b][1,4]oxazine]",5.00
2,"Oc1ccc(-c2cc(-c3cc(Cl)ccc3F)nc3c2OCCN3)cc1 [Example C2, 4-[6-(5-chloro-2-fluorophenyl)-2H,3H,4H-pyrido[3,2-b][1,4]oxazin-8-yl]phenol]",5.77

# Same assay, conditions: summary statements in running text; read-out: IC50 / potency on ALK5
row,Compound,pIC50
1,"COc1ccc(-c2cc(-c3cc(Cl)ccc3F)nc3c2OCCN3)cc1 [Example C1, 6-(5-chloro-2-fluorophenyl)-8-(4-methoxyphenyl)-2H,3H,4H-pyrido[3,2-b][1,4]oxazine]",< 5.77
2,"Oc1ccc(-c2cc(-c3cc(Cl)ccc3F)nc3c2OCCN3)cc1 [Example C2, 4-[6-(5-chloro-2-fluorophenyl)-2H,3H,4H-pyrido[3,2-b][1,4]oxazin-8-yl]phenol]",< 5.77
